{"source": "patent US8461107B2", "about": "(Merck Sharp & Dohme Corp., priority 2008, dated 2013)", "data": [{"target": "T1, HCV genotype 1b (BK) NS3 modified with a R155K mutation (Hepatitis C virus genotype 1b, UniProt P26663, R1181K)", "T1 construct": "HCV genotype 1b (BK) NS3 modified with a R155K mutation", "assay": "HCV NS3 protease time-resolved fluorescence (TRF) assay, NS3 protease 1b R155K Ki activity", "type": "biochemical", "conditions": "HCV genotype 1b (BK) NS3 with R155K mutation; TRF peptide substrate 100 nM; Ki derived from IC50", "in_short": "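Pre-incubation of NS3/NS4A protease (genotype 1b BK, R155K) with inhibitor for 30 min, then 1 h at room temperature with 100 nM TRF peptide substrate in pH 7.5 HEPES buffer with 10 mM DTT. Reaction quenched with pH 5.5 MES; time-resolved fluorescence read (ex 340/em 615 nm). Ki derived from four-parameter IC50 fit via IC50=Ki(1+[S]/KM).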", "units": {"Ki": "nM"}, "values": [{"smiles": "CC[C@@H]1C[C@]1(NC(=O)[C@@H]1C[C@@H]2CN1C(=O)[C@H](C1CCCC1)NC(=O)O[C@@H]1CCC[C@H]1CCCCCn1c(cc3ccc(F)cc3c1=O)O2)C(=O)NS(=O)(=O)C1CC1", "note": "[Example 16, (3aR,7S,10S,12R,25aR)-7-cyclopentyl-N-((1R,2R)-1-{[(cyclopropylsulfonyl)amino]carbonyl}-2-ethylcyclopropyl)-17-flouoro-5,8,19-trioxo-1,2,3,3a,5,6,7,8,11,12,21,22,23,24,25,25a-hexadecahydro-10H,19H-9,12-methanocyclopenta[18,19][1,10,3,6,12]dioxatriazacyclononadecino[12,11-b]isoquinoline-10-carboxamide]", "Ki": "0.1 to 0.5"}, {"smiles": "C=C[C@@H]1C[C@]1(NC(=O)[C@@H]1C[C@@H]2CN1C(=O)[C@H](C1CCCC1)NC(=O)O[C@@H]1CCC[C@H]1CCCCn1c(cc3ccccc3c1=O)O2)C(=O)NS(=O)(=O)C1CC1", "note": "[Example 19, (3aR,7S,10S,12R,24aR)-7-cyclopentyl-N-((1R,2S)-1-{[(cycloproylsulfonyl)amino]carbonyl}-2-vinylcyclopropyl)-5,8,19-trioxo-2,3,3a,5,6,7,8,11,12,21,22,23,24,24a-tetradecahydro-1H,10H,19H-9,12-methanocyclopenta[17,18][1,10,3,6,12]dioxatriazacyclooctadecino[12,11-b]isoquinoline-10-carboxamide]", "Ki": "0.1 to 0.5"}, {"smiles": "CC[C@@H]1C[C@]1(NC(=O)[C@@H]1C[C@@H]2CN1C(=O)[C@H](C(C)(C)C)NC(=O)O[C@@H]1CCC[C@H]1CCCCCn1c(cc3cc(Cl)ccc3c1=O)O2)C(=O)NS(=O)(=O)C1CC1", "note": "[Example 28, (3aR,7S,10S,12R,25aR)-7-tert-butyl-16-chloro-N-((1R,2R)-1-{[(cyclopropylsulfonyl)amino]carbonyl}-2-ethylcyclopropyl)-5,8,19-trioxo-1,2,3,3a,5,6,7,8,11,12,21,22,23,24,25,25a-hexadecahydro-10H,19H-9,12-methanocyclopenta[18,19][1,10,3,6,12]dioxatriazacyclononadecino[12,11-b]isoquinolin-10-carboxamide]", "Ki": "0.1 to 0.5"}, {"smiles": "C=C[C@@H]1C[C@]1(NC(=O)[C@@H]1C[C@@H]2CN1C(=O)[C@H](C1CCCC1)NC(=O)O[C@@H]1CCC[C@H]1CC/C=C/Cn1c(nc3cc(Br)ccc3c1=O)O2)C(=O)NS(=O)(=O)C1CC1", "note": "[Example 43, (3aR,7S,10S,12R,22E,25aS)-16-bromo-7-cyclopentyl-N-((1R,2S)-1-{[(cyclopropylsulfonyl)amino]carbonyl}-2-vinylcyclopropyl)-5,8,19-trioxo-1,2,3,3a,5,6,7,8,11,12,21,24,25,25a-tetradecahydro-10H,19H-9,12-methanocyclopenta[18,19][1,10,3,6,12]dioxatriazatriazacyclononadecino[11,12-b]quinazoline-10-carboxamide]", "Ki": "< 0.1"}, {"smiles": "CC[C@@H]1C[C@]1(NC(=O)[C@@H]1C[C@@H]2CN1C(=O)[C@H](C1CCCC1)NC(=O)O[C@@H]1CCC[C@H]1CC/C=C/Cn1c(nc3cc(OC)ccc3c1=O)O2)C(=O)NS(=O)(=O)C1CC1", "note": "[Example 50, (3aR,7S,10S,12R,22E,25aS)-7-cylcopentyl-N-((1R,2R)-1-{[(cyclopropylsulfonyl)amino]carbonyl}-2-ethylcyclopropyl)-16-methoxy-5,8,19-trioxo-1,2,3,3a,5,6,7,8,11,12,21,24,25,25a-tetradecahydro-10H,19H-9,12-methanocyclopenta[18,19][1,10,3,6,12]dioxatriazacyclononadecino[11,12-b]quinazoline-10-carboxamide]", "Ki": "0.1 to 0.5"}, {"smiles": "C=C[C@@H]1C[C@]1(NC(=O)[C@@H]1C[C@@H]2CN1C(=O)[C@H](C1CCCC1)NC(=O)O[C@@H]1CCC[C@H]1CC/C=C/Cn1c(nc3c(OC)cccc3c1=O)O2)C(=O)NS(=O)(=O)C1CC1", "note": "[Example 51]", "Ki": "< 0.1"}, {"smiles": "C=C[C@@H]1C[C@]1(NC(=O)[C@@H]1C[C@@H]2CN1C(=O)[C@H](C1CCCC1)NC(=O)O[C@@H]1CCC[C@H]1CC/C=C/Cc1c(nc3cc(OC)ccn3c1=O)O2)C(=O)NS(=O)(=O)C1CC1", "note": "[Example 57, (3aR,7S,10S,12R,22E,25aS)-7-cyclopentyl-N-((1R,2S)-1-{[(cyclopropylsulfonyl)amino]carbonyl}-2-vinylcylcopropyl)-16-methoxy-5,8,20-trioxo-1,2,3,3a,5,6,7,8,11,12,21,24,25,25a-tetradecahydro-10H,20H-9,12-methanocyclopenta[r]pyrido[1′,2′:1,2]pyrimido[4,5-k][1,10,3,6]dioxadiazacyclononadecine-10-carboxamide]", "Ki": "< 0.1"}, {"smiles": "C=C[C@@H]1C[C@]1(NC(=O)[C@@H]1C[C@@H]2CN1C(=O)[C@H](C1CCCC1)NC(=O)O[C@@H]1CCC[C@H]1CC/C=C/Cn1c(nc3cc(C)ccc3c1=O)O2)C(=O)NS(=O)(=O)C1CC1", "note": "[Example 61]", "Ki": "< 0.1"}, {"smiles": "C=C[C@@H]1C[C@]1(NC(=O)[C@@H]1C[C@@H]2CN1C(=O)[C@H](C1CCCC1)NC(=O)O[C@@H]1CCC[C@H]1CC/C=C/Cn1c(nc3cc(C#N)ccc3c1=O)O2)C(=O)NS(=O)(=O)C1CC1", "note": "[Example 63, (3aR,7S,10S,12R,22E,25a8)-16-cyano-7-cyclopentyl-N-((1R,2S)-1-{[(cyclopropylsulfonyl)amino]carbonyl}-2-vinylcyclopropyl)-5,8,19-trioxo-1,2,3,3a,5,6,7,8,11,12,21,24,25,25a-tetradecahydro-10H,19H-9,12-methanocyclopenta[18,19][1,10,3,6,12]dioxatriazacyclononadecino[11,12-b]quinazoline-10-carboxamide]", "Ki": "< 0.1"}, {"smiles": "C=C[C@@H]1C[C@]1(NC(=O)[C@@H]1C[C@@H]2CN1C(=O)[C@H](C1CCCC1)NC(=O)O[C@@H]1CCC[C@H]1CCCCCn1c(nc3cc(C#N)ccc3c1=O)O2)C(=O)NS(=O)(=O)C1CC1", "note": "[Example 78, (3aR,7S,10S,12R,25aR)-16-cyano-7-cyclopentyl-N-((1R,2S)-1-{[(cycyclopropylsulfonyl)amino]carbonyl}-2-vinylcyclopropyl)-5,8,19-trioxo-1,2,3,3a,5,6,7,8,11,12,21,22,23,24,25,25a-hexadecahydro-10H,19H-9,12-methanocyclopenta[18,19][1,10,3,6,12]dioxatriazacyclononadecino[11,12-b]quinazoline-10-carboxamide]", "Ki": "0.1 to 0.5"}, {"smiles": "C=C[C@@H]1C[C@]1(NC(=O)[C@@H]1C[C@@H]2CN1C(=O)[C@H](C1CCCC1)NC(=O)O[C@@H]1CCC[C@H]1CCC=CCn1c(cccc1=O)O2)C(=O)NS(=O)(=O)C1CC1", "note": "[Example 81, (1R,10E, and 10Z,14S,18R,22S,25S)-22-Cyclopentyl-N-((1R,2S)-1-{[(cyclopropyl-sulfonyl)amino]carbonyl}-2-vinylcyclopropyl)-7,20,23-trioxo-2,19-dioxa-8,21,24-tri azatetracyclo[22.2.1.0^3,8.0^14,18]heptacosa-3,5,10-triene-25-carboxamide]", "Ki": "0.1 to 0.5"}]}]}
